Source: patent US20050026296A1, “Diagnostic method based on lipid measuring parameter modulations/effector quotient profiles” (priority 2001, published 2005)

Test system: leukocytes from the peripheral blood
Test: Release of prostaglandin E2 (PGE2) and peptide leukotrienes (pLT) from leukocytes after modulation, quantified by EIA
Format: cell-based, human
Details: for PGE2 (lipid measurement parameter A) in cell culture supernatant / pLT (lipid measurement parameter B) in cell culture supernatant: 100,000 cells/ml, 37° C., 30 minutes; for Standardized effector quotient (PGE/pLT) / Standardized modulation quotient PGE2 / Standardized modulation quotient pLT: divided by quotient of standard group
Protocol: Human leukocytes of the peripheral blood are separated from plasma with the aid of a dextran gradient, and adjusted to a defined cell count (100,000 cells/ml). Subsequently, the stimulation is effected by incubation of the cells, e.g. without or while adding arachidonic acid as modulating indicator substance, or anti-IgE as modulating effector for a defined time (30 minutes) at 37° C. in cell culture medium (e.g. RPMI 1640). After sedimentation of the cells by centrifugation for 5 minutes with 800×g at 4° C., the cell-free supernatant is collected and can be stored at −80° C. under nitrogen or argon, if desired. Afterwards, these measurement samples are transferred to a polystyrol plate coated with prostaglandin E2 or peptide leukotrienes, respectively, and incubated for 18 hours at 4° C. while adding an anti-prostaglandin-E2- or anti-peptide-leukotriene-antibody, respectively, (“competitive assay”). After a washing step, an incubation at 23° C. for 2 hours is performed with a biotinylated secondary antibody against the first antibody. After further washing, incubation follows with a streptavidin-conjugated peroxidase at 23° C. for 1 hour, and after further washing, a peroxidase substrate is added and the optical density is determined after about 30 minutes with a multichannel photometer. With the aid of the standard curves carried along, the measurement values can now be quantified and used for calculating the lipid measurement parameter stimulation/effector quotient profiles (an example for the calculation is given herein below).
1) Leukocytes from the peripheral blood of investigation group 1/standard group/investigation group 2 are obtained by blood withdrawal, followed by density gradient separation (3% dextran solution) for separating plasma and leukocytes. The leukocytes thus obtained are washed 3 times with phosphate buffered solution (PBS) and pooled/resuspended in cell culture medium ([…]), before they are adjusted to a cell count of 100,000 cells/ml (investigation group 2 only in this example; in principle, a second group is not necessary for this test, but serves here for a better understanding and as second comparison group, both to the standard group and to the investigation group).
2) The cells are divided into 3 equal parts (e.g. 3 times with 1 ml cell suspension with 100,000 cells/ml each) in reaction vessels (e.g. plastic or glass vessels).
A control solution is added to the first part-sample (=without further modulator, =zero or blank value; control solution is the solvent, in which the modulators are dissolved).
Arachidonic acid is added to the second part-sample (concentration: 10^−5 M; =indicator substance).
An anti-immunoglobulin-E solution is added to the third part-sample (e.g. 1:100 dilution of the anti-human-IgE-solution from DAKO, =modulator or modulating substance).
Exposition/incubation with the indicator substance arachidonic acid and the modulator anti-immunoglobulin-E-solution is started simultaneously at e.g. 37° C. for e.g. 30 minutes.
Thereafter, the cells are separated from the cell culture medium, e.g. by centrifugation at 4° C. with a sedimentation force of e.g. 800×g. The supernatant obtained from the 3 part-samples, separated for each part-sample, is then collected in suitable vessels (e.g. cryovessels) and stored until EIA analysis at e.g. −70° C.
3) The contents of prostaglandin E2 (PGE2) and peptide leukotrienes (pLT9) in the cell culture supernatants of the 3 part-samples are analysed and quantified by enzyme immunological assays (EIA) specific for PGE2 (=lipid measurement parameter A) and pLT (=lipid measurement parameter B), respectively.

Which results are given for CCCCC/C=C\C/C=C\C/C=C\C/C=C\CCCC(=O)O [arachidonic acid]?
PGE2 (lipid measurement parameter A) in cell culture supernatant (Investigation group 1 (I1)): 4120 ± 236 pg/mL; pLT (lipid measurement parameter B) in cell culture supernatant (Investigation group 1 (I1)): 150±10.4 pg/ml; Effector quotient (PGE/pLT) (Investigation group 1 (i1)): 27.5; Modulation quotient PGE2 (modulated value / zero value A0) (Investigation group 1 (i1)): 11.8; Modulation quotient pLT (modulated value / zero value B0) (Investigation group 1 (i1)): 1.3; Standardized effector quotient (PGE/pLT) (Investigation group 1 (i1)): 0.941; Standardized modulation quotient PGE2 (Investigation group 1 (i1)): 5.1; Standardized modulation quotient pLT (Investigation group 1 (i1)): 0.21; PGE2 (lipid measurement parameter A) in cell culture supernatant (Investigation group 2 (I2)): 3976 ± 245 pg/mL; pLT (lipid measurement parameter B) in cell culture supernatant (Investigation group 2 (I2)): 128 ± 10.4 pg/ml; Effector quotient (PGE/pLT) (Investigation group 2 (i2)): 31.1; Modulation quotient PGE2 (modulated value / zero value A0) (Investigation group 2 (i2)): 1.8; Modulation quotient pLT (modulated value / zero value B0) (Investigation group 2 (i2)): 2.4; Standardized effector quotient (PGE/pLT) (Investigation group 2 (i2)): 1.065; Standardized modulation quotient PGE2 (Investigation group 2 (i2)): 0.78; Standardized modulation quotient pLT (Investigation group 2 (i2)): 0.38; PGE2 (lipid measurement parameter A) in cell culture supernatant (Standard group (N)): 4170 ± 275 pg/mL; pLT (lipid measurement parameter B) in cell culture supernatant (Standard group (N)): 143 ± 12.4 pg/ml; Effector quotient (PGE/pLT) (Standard group (n)): 29.2; Modulation quotient PGE2 (modulated value / zero value A0) (Standard group (n)): 2.3; Modulation quotient pLT (modulated value / zero value B0) (Standard group (n)): 6.2; Standardized effector quotient (PGE/pLT) (Standard group (n)): 1 (0.9-1.1); Standardized modulation quotient PGE2 (Standard group (n)): 1 (0.8-1.2); Standardized modulation quotient pLT (Standard group (n)): 1 (0.5-1.2); induced synthesis of prostaglandin E2 compared with persons without pathological findings (analgesic intolerance): unstriking; elevation of induced synthesis of peptide leukotriene compared with persons without pathological findings (analgesic intolerance, unstriking to faintly elevated): 0-40%
